Results published in patent US20100009934A1, “BETA ADRENERGIC RECEPTOR AGONISTS FOR THE TREATMENT OF B-CELL PROLIFERATIVE DISORDERS” (CombinatoRx, Incorporated, priority 2008, published 2010).
Values joined by “and” are separate entries in the source; they are usually repeats but may differ in a detail not shown here. Equal values may be shown once. Read-outs that look alike come from different tables or passages of the source.

Key:
[1] = system: Diffuse Large B-Cell Lymphoma Cell Line OCI-Ly10; experiment: Anti-proliferation assay (ATPLite, 72 hours), OCI-ly10; assay type: cell-based; details: DEX μM r7-r15: 0.101, 0.033666667, 0.011222222, 0.003740741, 0.001246914, 0.000415638, 0.000138546, 0.000046182, 0
Source text: Combinations were ranked initially by Additivity Excess Volume, which is defined as ADD Volume=ΣCX, CY (Idata−ILoewe), where ILoewe(CX, CY) is the inhibition that satisfies (CX/ECX)+(CY/ECY)=1, and ECX,Y are the effective concentrations at ILoewe for the single agent curves.

MM.1S cells [2] = experiment: Annexin V / propidium iodide apoptosis assay, MM.1S; assay type: cell-based, human; details: 0.3 nM salmeterol, 72 hours (FIG. 2)
Protocol: Effects on cell viability were determined by measuring the percent of cells that were annexin V positive (an early marker for apoptosis) and by measuring the percent of cells propidium iodide (PI) positive, an indicator that cellular membranes are compromised and a marker of cell death.

RPMI-8226 cells = details: 2 nM salmeterol for 5 hours, soft agar, three weeks; 740 colonies without drugs
Protocol: The effect of BAR agonists on cells grown in soft agar was also determined. This approach allows the measurement of long term cell viability after single agent or combination treatment. […] Cells were washed and plated in soft agar. After three weeks colonies were counted to determine cell viability.

[3] = system: Human Multiple Myeloma Cells (MM.1S) cultured in the presence of BAR agonist for one month; experiment: Antiproliferative activity on MM.1S cultured one month in the presence of salmeterol or salbutamol; assay type: cell-based; details: for percent inhibition of cell proliferation: MM.1S cultured in Salmeterol for one month (final 64 nM), DEX (μM): 2.0, 0.666, 0.23, 0.074, 0.024, 0.0082, 0.00274, 0.0009, 0
Source text: A recurrent problem in cancer therapy is that prolonged exposure of tumor cells to chemotherapeutic agents can generate cells resistant to agents that initially have antiproliferative or cell killing activity. […] Cells cultured for one month in the presence of BAR agonist were washed to remove drug and put into 384 well plates for 9×9 dose matrix combination screening with BAR agonists and dexamethasone.

MM.1S cells [4] = experiment: Annexin V/PI FACS assay of control MM.1S and cells cultured one month with salmeterol or salbutamol; assay type: cell-based, human; details: 250 pM salmeterol
Protocol: Forty eight hours later, the percent of cells positive for Annexin V and propidium iodide (PI) was determined using FACS (FIG. 5).

[5] = system: human multiple myeloma xenografts (MM1S); experiment: MM.1S xenograft model in SCID mice; assay type: in vivo, mouse; details: Dex 1 mg/kg or salmeterol 10 mg/kg, subcutaneous daily
Protocol: The human multiple myeloma cell line MM1S was injected subcutaneously into the flanks of SCID mice. Five days following the injection of MM1S cells, animals were randomized into the following four treatment groups (n=6-7) based on tumor size.
(§1) Group 1—Vehicle (90% PBS+10% EtOH)
The prepared test, positive, and negative control substances were administered via subcutaneous injection daily for up to 85 Days. During the treatment period, tumor volume and animal body weights were measured 3 times per week (Monday, Wednesday and Friday). The animals were removed from the study if there was overall poor body condition, tumor volume above 3000 mm^3, body weight loss greater than or equal to 20% or ulcerated tumors.
The slope of the tumor volume growth of each animal was calculated from the initial study day until the day each animal was removed from the study. From these slopes the mean change in tumor volume per study day was calculated.

[6] = system: RPMI-8226 multiple myeloma (MM) xenograft; details: Day 19; 10 mg/kg salmeterol, 0.5 mg/kg bortezomib, or both
Protocol: Dexamethasone was administered by intraperitoneal (IP) injection daily for thirty-six treatments (QD×36). Bortezomib was injected intravenously (IV) every third day for six treatments (Q3D×6).
as §1
Significant endpoints included mean tumor growth inhibition (TGI) or regression, animal weight loss, and potential toxicity. […] Animals were implanted with cancer cells harvested from tissue culture and allowed to establish tumors in SCID mice. Treatment initiated when the mean tumor volume reached 137 mm^3 in size.

[7] = system: Human Multiple Myeloma Cells (MM.1S); details: 10 ng/ml IL-6 vs no IL-6 (Tables 52 and 53)
[8] = system: Human Multiple Myeloma Cells (EJM); experiment: Anti-proliferation assay (ATPLite, 72 hours), EJM; details: DEX μM r7-r15: 2.03, 0.675, 0.225, 0.075, 0.025, 0.00834, 0.00278, 0.00093, 0
[9] = system: Human Multiple Myeloma Cells (MM.1S); experiment: Anti-proliferation assay (ATPLite, 72 hours), MM.1S
[10] = system: Human Multiple Myeloma Cells (ANBL-6); experiment: Anti-proliferation assay (ATPLite, 72 hours), ANBL-6; details: for Antiproliferative Activity: Salmeterol 0.00000506 μM
[11] = system: multiple myeloma tumor cells from patients; experiment: MTT cell viability assay, multiple myeloma patient tumor cells; details: Homo sapiens, 48 h
Source text: Tumor cells were obtained via bone marrow aspirates and affinity selected using CD138-linked magnetic beads.

[12] = Homo sapiens, MM1.S, read-out: percent inhibition of cell proliferation
[13] = read-out: Reduction in Cell Viability

In the case of `OCc1cc(C(O)CNCCCCCCOCCCCc2ccccc2)ccc1O` (centres unmarked) [salmeterol], the “Antiproliferative Activity” value ([1]; Salmeterol 0.001055 μM) is reported as 5.9, the “Antiproliferative Activity” value ([1]; Salmeterol 0.003165 μM) is reported as 6.3 and the “Antiproliferative Activity” value ([1]; Salmeterol 0.009494 μM) is reported as 9.1. The “Antiproliferative Activity” value ([1]; Salmeterol 0.028481 μM) was −0.6, the “Antiproliferative Activity” value ([1]; Salmeterol 0.085444 μM) was 6.3 and the “Antiproliferative Activity” value ([1]; Salmeterol 0.256333 μM) was 27. For the same compound, the “induction of MM.1S cell apoptosis” value (MM.1S cells [2]) was roughly 40%, the “colony number per 10,000 cells plated” value (RPMI-8226 cells) was 360 colonies and the “percent inhibition of cell proliferation” value ([3]; Salmeterol 0.00008 μM) was 6.1%. The “percent inhibition of cell proliferation” value ([3]; Salmeterol 0.02 μM) was 5.6%, the inhibition of proliferation ([3]; […] salmeterol, cells cultured one month in salmeterol (64 nM), Table 48) was 4.1% and the “single agent sensitivity after culture in 64 nM salmeterol” value ([3]; cells cultured one month in salmeterol (Table 48)) was “no longer sensitive”. The “sensitivity (Annexin V/PI)” value (MM.1S cells [4]; cells treated for one month with salmeterol or salbutamol, 48 hours) was “not sensitive”, the “Annexin V/PI+ cells” value (MM.1S cells [4]; control cells, 48 hours (FIG. 5)) was 20% and the “study day by which all animals of the group were removed” value [5] was no more than 43 study day. For the same compound, the “tumor growth inhibition (TGI)” value [6] was 37%, the “effect of IL-6 on antiproliferative activity” value [7] was “increased at each concentration tested” and the “Antiproliferative Activity” value ([8]; Salmeterol 0.000158 μM) was 38.1. The “Antiproliferative Activity” value ([8]; Salmeterol 0.000316 μM) was 47.7, the “Antiproliferative Activity” value ([8]; Salmeterol 0.00506 μM) was 47.9 and the inhibition at 9.1 pM [9, 12] was 4.9%. It also gave an inhibition at 27 pM [9, 12] of 7.1%, an inhibition at 80 pM [9, 12] of 25% and an inhibition at 0.02 µM [9, 12] of 59%. The “percent inhibition of cell proliferation” value ([9]; SAHA 0 μM (single agent), Salmeterol (nM) by row: r7 0.011, r8 0.0036, r9 0.0012, r10 0.0004, r11 0.00013, r12 0.000045) was 70%, the “Antiproliferative Activity” value ([9]; Salmeterol 0.00000506 μM, BORT μM r7-r15: 0.0405, 0.0203, 0.0101, 0.00506, 0.00253, 0.00127, 0.000633, 0.000316, 0) was 16.9% and the “Antiproliferative Activity” value ([10]; DEX μM r7-r15: 2.03, 0.675, 0.225, 0.075, 0.025, 0.00834, 0.00278, 0.00093, 0) was 18.6. The “Antiproliferative Activity” value ([10]; LEN μM r7-r15: 4.04, 2.02, 1.01, 0.505, 0.253, 0.126, 0.0632, 0.0316, 0) was 34.7, the “percent inhibition of cell proliferation” value ([10]; Trequinsin 0 μM (single agent), SAL (μM): 0.0203, 0.0101, 0.00506, 0.00253, 0.00127, 0.000633, 0.000316, 0.000158) was 54% and 55.7% and 58.4% and 54.8% and 50.7% and 58% and 54.7% and 55% and the cytotoxicity at 12.5 pM [11, 13] was -0.2%. It also gave a cytotoxicity at 25 pM [11, 13] of 12%, a cytotoxicity at 50 pM [11, 13] of 13% and a cytotoxicity at 0.0001 µM [11, 13] of 35%. The cytotoxicity at 0.0002 µM [11, 13] was 40%, the cytotoxicity at 0.0004 µM [11, 13] was 38% and the cytotoxicity at 0.0008 µM [11, 13] was 44%. For the same compound, the cytotoxicity at 0.0004 µM ([11]; read-out: activity (reduction in cell viability)) was 38% and the viability at 0.001 µM ([11]; read-out: tumor cell viability) was 80%.
